Experimental data reported in PMC6143625, “A high throughput screen for next-generation leads targeting malaria parasite transmission” (Nature Communications, 2018).
Several values for one entry are separate records, joined by “and”; a condition that tells them apart may be missing. Identical values can stand only once.

Assays:
[1] = tested on: P. falciparum male gametogenesis; assay: Phenotypic immunofluorescence assay of male gamete formation; assay type: cell-based, Plasmodium falciparum; conditions: 10 µM, 24 h treatment, 0–20 min post induction
Protocol: In vitro evolution followed by whole-genome analysis is the primary approach currently used for understanding how compounds act in malaria parasites. As it is not currently feasible to generate resistant mutants to compounds that are only active in the gametocyte stage (resistance generation requires extensive rounds of replication in the presence of compound), phenotypic immunofluorescence assays were performed to evaluate compound activity on male gamete formation. Gametocytes treated with 10 µM of each compound were sampled at 0, 2, 3, 4, 6, 8, 10, and 20 min post induction of gamete formation before imaging (Fig. 4). Individual male cells were then extracted from the images and analysed for shape and haploid chromosome number/DNA content to quantitatively measure the progression of DNA replication (n = 198–668 cells) (Fig. 5a).
Day 14 gametocyte culture was divided into 4 ml aliquots and treated either with DMSO or 10 µM test compound. After 24 h, 500 µl aliquots of the non-activated gametocytes were fixed in an equal volume of 8% paraformaldehyde (PFA) warmed to 37 °C to generate Time = 0 min (t = 0) samples. Gamete formation was induced in the remainder of the cultures by cooling to RT and addition of 500 µl ookinete medium. At t = 2, 3, 4, 6, 8, 10, and 20 min 500 µl of culture was removed and immediately fixed in equal volume of 8% PFA at room temperature for 15 min. Fixed cells were diluted in PBS and allowed to settle onto poly-L-lysine-coated glass coverslips overnight. The next day, cells were washed in PBS, permeabilized in 0.1% Triton X-100 and blocked in PBS + 10% FBS. Cells were stained with mouse anti-alpha tubulin (Sigma) clone DM1A (1:500 dilution) and rabbit anti-Glycophorin A (Abcam) clone EPR8200 (1:1000 dilution). Staining was visualised with anti-mouse […] and anti-rabbit Alexa555 (Thermo-Fisher) both at 1:1000 dilution. Coverslips were mounted onto glass slides with VectaShield mountant (Vector Laboratories) containing 4′,6-diamidino-2-phenylindole (DAPI) to visualise cellular DNA. Cells were imaged at random (n = 195–668 cells per test compound) using a Nikon Ti-E widefield microscope using a × 100 objective lens and taken in 0.2 µm slice z-stack images to capture the whole cell. All images were converted to maximum intensity projections in NIS Elements v4.20 and all further image processing performed in ICY. Individual cells were manually selected and automatically extracted from each image using the Active Contours plugin gated to the tubulin staining. Using the ROI Statistics plugin, the following parameters were calculated for each cell and exported to MS Excel: Cell area, Cell roundness, Cell elongation, and Average intensity of blue channel (DNA). […] Outlier cells from the curve were all exflagellating (Supplementary Fig. 6). These two parameters were combined as a ratio of roundness:elongation to produce the parameter Cell shape. Cellular DNA content was estimated by multiplying the average pixel intensity of the blue channel (after subtracting the background intensity of an empty area in the same parent image) with the total cell area.

[2] = tested on: P. falciparum transmission to Anopheles stephensi mosquitoes; assay: P. falciparum standard membrane-feeding assay (SMFA), luciferase oocyst readout; assay type: in vivo, Plasmodium falciparum; conditions: 10 µM; for prevalence of infection, % of the DMSO control / mean normalised luciferase intensity: indirect mode; for mean normalised luciferase intensity: 24 h gametocyte incubation, oocysts 8 days later; for Average oocyst intensity / Prevalence: mode indirect, per experiment
Protocol: SMFAs were performed commercially by TropiQ Health Sciences (Nijmegen, The Netherlands)[26]. Cultures of mature stage V gametocytes of P. falciparum expressing a GFP-Luciferase fusion protein under the control of the hsp70 promoter were treated with DMSO or 10 µM of test compound for 24 h (indirect mode). They were then mixed with uninfected erythrocytes and pelleted. The cell pellet was resuspended in human serum to form the blood meal and fed to Anopheles stephensi mosquitoes. […] Eight days after infection, mosquitoes were individually processed and their lysate assessed for luciferase activity in comparison to uninfected mosquitoes.

[3] = tested on: P. falciparum male gametocytes; assay: Pf DGFA wash-out format, male readout; assay type: cell-based; conditions: Plasmodium falciparum; 48h preincubation/wash-out
[4] = tested on: NF54 stage V gametocytes; assay: Gametocytocidal MitoTracker-based viability assay (SaLSSA); assay type: cell-based, Plasmodium falciparum NF54; conditions: for IC50: Plasmodium falciparum, NF54, 72h incubation, read-out: Pf Stage V GCT (mitotracker assay) IC50
Protocol: As another independent assessment of the metabolic viability of compound-treated stage V gametocytes, the Saponin-lysis Sexual Stage Assay (SaLSSA) was employed. A volume of 100 nl of test compounds were pre-dispensed in 384-well plates (781091-2B, Greiner) in 12-point dose response (25 µM to 1.41 × 10^−4 µM), prior to the addition of synchronous NF54 stage V gametocytes (40 µl at 0.70% gametocytaemia). Assay plates were then incubated for 72 h in a low oxygen environment (92% N2, 5% CO2, 3%O2) before a 10 µl MitoTracker Red CMXRos (2.5 µM) and saponin solution (0.13%w/v) was added. Plates were returned to 37 °C for 1 h to allow for complete red blood cell lysis, after which viable gametocytes were detected using an Operetta high-content imaging system. Analysis was performed using the Harmony package software, with potency calculated relative to puromycin (positive control) and DMSO (negative control).

[5] = Aqueous solubility (DMPK); assay type: physicochemical; conditions: aqueous medium
Protocol: DMPK analyses were performed by the Dundee University Drug Discovery Unit and BPCA/DDD599 stability analysis were undertaken by chemists at GlaxoSmithKline using in-house, standardised approaches.

[6] = tested on: P. berghei 507 strain in mice, transmission to Anopheles stephensi; assay: P. berghei mosquito (direct) feeding assay in infected mice; assay type: in vivo, Plasmodium berghei; conditions: for transmission blocking efficacy at the oocyst level: 24 h before mosquito feeding; for suppression of gametocytaemia compared to vehicle-only controls: 24 h exposure; for effect on asexual parasitaemia: single dose; for Infection Prevalence (%) / Mean oocysts per mosquito / Asexual parasitemia (%) Before treatment / Gametocytemia (%) Before treatment / Asexual parasitemia (%) 24hr After treatment / Gametocytemia (%) 24hr After treatment: per mouse; for Asexual parasitemia (%) Before treatment / Gametocytemia (%) Before treatment / Asexual parasitemia (%) 24hr After treatment / Gametocytemia (%) 24hr After treatment: 50mg/kg; for Asexual parasitemia (%) Before treatment / Gametocytemia (%) Before treatment: baseline
Protocol: Six- to eight-week female T0 mice were treated with phenylhydrazine 3 days prior to intraperitoneal (IP) inoculation with 100 µl of mouse blood infected with the constitutively GFP expressing P. berghei 507 strain[39]. On day 3 after infection, thin blood smears were taken from tail blood to quantify parasitaemia and gametocytaemia. […] […] Twenty-four hours after feeding, unfed mosquitoes were removed and remaining mosquitoes maintained for a further 9 days on sucrose solution. Mosquito midguts were then dissected, imaged and oocysts quantified by semi-automated computer analysis.

[7] = Dose 30min prior, listed as DDD881

O=C(CCl)Nc1ccc(Br)cc1 [BPCA, N-(4-bromophenyl)-2-chloroacetamide]
phenotype of male gametogenesis (IFA) [1]: rounded up after induction but most cells did not replicate their DNA and none exflagellated | prevalence of infection, % of the DMSO control [2]: 25.12% | mean normalised luciferase intensity [2]: 5.27 arbitrary units

CC(=O)c1c(C)nn(CC(=O)Nc2ccc(Br)cc2)c1C [DDD01027599]
IC50 [3]: 0.97 µM | IC50 [4]: 5.55 µM

O=S(=O)(NCC1(O)CCOc2ccccc21)c1ccccc1F (stereo not shown) [DDD01028073]
IC50 [3]: > 12.5 µM | IC50 [4]: > 25 µM

Cc1ccc(S(=O)(=O)NCC2(O)CCOc3ccccc32)s1 (stereo not shown) [DDD01028074]
IC50 [3]: > 12.5 µM | IC50 [4]: > 25 µM

O=S(=O)(NCC1(O)CCOc2ccccc21)c1ccc(Cl)s1 (stereo not shown) [DDD01028075]
IC50 [3]: > 12.5 µM | IC50 [4]: > 25 µM

O=S(=O)(NCC1(O)CCOc2ccccc21)c1ccccc1Br (stereo not shown) [DDD01028076]
IC50 [3]: > 12.5 µM | IC50 [4]: > 25 µM

COc1cccc(-n2ccc3nc(N4CCCC4)ncc3c2=O)c1 [DDD01034957]
IC50 [4]: > 25 µM

O=S(=O)(NCC1(O)CCOc2ccccc21)c1cccs1 (stereo not shown) [DDD01035879]
IC50 [3]: > 12.5 µM | IC50 [4]: > 25 µM

O=S(=O)(NCC1(O)CCOc2ccccc21)c1ccc(Br)s1 (stereo not shown) [DDD01035881]
IC50 [3]: > 12.5 µM | solubility [5]: > 250 µM | phenotype of male gametogenesis (IFA) [1]: only a few cells replicated their DNA and none exflagellated | Average oocyst intensity ([2]; listed as DDD881): 4.2 and 4.1 | Prevalence ([2]; listed as DDD881): 1.4% and 0.0% | IC50 [4]: > 25 µM | blockade on oocyst intensity ([6]; 50 mg kg^−1 IP, 30 min before the feed): 99.6% | transmission blocking efficacy at the oocyst level ([6]; 50 mg kg^−1 IP): no transmission blocking efficacy | suppression of gametocytaemia compared to vehicle-only controls ([6]; 50 mg kg^−1 IP): not impacted | effect on asexual parasitaemia ([6]; 50 mg kg^−1 IP): not impacted | Infection Prevalence (%) [6, 7]: 54.35% and 23.08% | Mean oocysts per mosquito [6, 7]: 1.43 and 0.60 | Infection Prevalence (%) ([6]; Dose 24hr prior to feeding): 100% | Mean oocysts per mosquito ([6]; Dose 24hr prior to feeding, listed as DDD881): 330.22 and 190.61

CC(c1ccco1)N(C(=O)CNc1ccc(C#N)cc1)C1CC1 (stereo not shown) [DDD01062645]
IC50 [3]: > 12.5 µM | IC50 [4]: > 25 µM

Cc1ccc(CN(c2cc(C)nc3nc(C(F)(F)F)nn23)C2CC2)cc1 [DDD01063654]
IC50 [4]: > 10 µM

CC(NCC1CCN(CCO)CC1)c1ccc(OC(F)(F)F)cc1 (stereo not shown) [DDD01073716]
IC50 [3]: 1.08 µM | IC50 [4]: 7.07 µM

CN1CCC(NCC(O)c2cccc(OCc3ccccc3)c2)CC1 (stereo not shown) [DDD01079164]
IC50 [3]: 1.3 µM | IC50 [4]: 4.97 µM

OC1(CN2CCC(Oc3cccc(C(F)(F)F)c3)CC2)CCNC1 (stereo not shown) [DDD01245291]
IC50 [3]: 0.68 µM | solubility [5]: > 250 µM | phenotype of male gametogenesis (IFA) [1]: arrested after rounding up | prevalence of infection, % of the DMSO control [2]: no infected mosquitoes observed | mean normalised luciferase intensity [2]: 1.37 arbitrary units | Prevalence [2]: 0.0% | Average oocyst intensity ([2]; listed as DDD291): 2.7 and 3.2 and 3.3 | IC50 [4]: > 12.5 µM | transmission blocking efficacy at the oocyst level ([6]; 50 mg kg^−1 IP): not possible to measure a reduction in transmission at the oocyst level | suppression of gametocytaemia compared to vehicle-only controls ([6]; 50 mg kg^−1 IP): ~ 6 fold | effect on asexual parasitaemia ([6]; 50 mg kg^−1 IP): did not affect asexual parasitaemia | Infection Prevalence (%) ([6]; Dose 24hr prior to feeding): 100% | Mean oocysts per mosquito ([6]; Dose 24hr prior to feeding, listed as DDD291): 239.06 and 211.28 | Asexual parasitemia (%) Before treatment ([6]; listed as DDD291, 50 mg/kg): 0.86% and 0.55% | Gametocytemia (%) Before treatment ([6]; listed as DDD291, 50 mg/kg): 0.32% and 0.16% | Asexual parasitemia (%) 24hr After treatment ([6]; listed as DDD291, 50 mg/kg): 5.70% and 4.55% | Gametocytemia (%) 24hr After treatment ([6]; listed as DDD291, 50 mg/kg): 0.30% and 0.51%

CC(c1cccs1)N(C)Cc1cnc(-c2ccccn2)nc1 (stereo not shown) [DDD01246628]
IC50 [4]: 0.2 µM

CC(C)CN1CCn2nc(CNc3ncnc4[nH]ccc34)cc2C1 [DDD01249504]
IC50 [3]: 2.74 µM | phenotype of male gametogenesis (IFA) [1]: the second and third divisions were delayed with a smaller proportion of cells reaching 8n | IC50 [4]: > 25 µM | Asexual parasitemia (%) Before treatment ([6]; listed as DDD504, 50 mg/kg): 0.74% and 0.98% | Gametocytemia (%) Before treatment ([6]; listed as DDD504, 50 mg/kg): 0.21% and 0.15% | Asexual parasitemia (%) 24hr After treatment ([6]; listed as DDD504, 50 mg/kg): 5.35% and 7.03% | Gametocytemia (%) 24hr After treatment ([6]; listed as DDD504, 50 mg/kg): 1.21% and 1.88%

Cc1nn(C)c(Oc2ccc(Cl)cc2)c1CN1CCC(CN)C1 (stereo not shown) [DDD01254274]
IC50 [3]: 2.84 µM | IC50 [4]: > 12.5 µM

CCc1ccc(C2c3nc[nH]c3CCN2Cc2nccn2CC)nc1 (stereo not shown) [DDD01254473]
IC50 [3]: 5.74 µM | IC50 [4]: 0.08 µM | activity in the mitotracker assay ([4]; profiling): submicromolar

CCOc1ccc2ccccc2c1CNCC1CCNCC1.Cl.Cl [DDD01255740]
IC50 [3]: 0.67 µM | IC50 [4]: 3.57 µM

Cc1ccc(-c2cc(C(=O)NCCC3=CCCCC3)[nH]n2)o1 [DDD01255968]
IC50 [3]: 2.19 µM | phenotype of male gametogenesis (IFA) [1]: did not replicate their DNA and remained with 1n genome copies | IC50 [4]: > 25 µM

CCn1ncc(Br)c1CN(C)S(=O)(=O)c1ccc(C)cc1 [DDD01259521]
IC50 [4]: > 25 µM
